# From PMC5515969, “Effects of 31 FDA approved small-molecule kinase inhibitors on isolated rat liver mitochondria” (Archives of Toxicology, 2016)
# Like-named read-outs stand apart in the source and are kept apart here.
# Assays:
# [1] = system: isolated rat liver mitochondria; test: Mitochondrial inner membrane potential (MMP), Rhodamine 123; assay type: biochemical; conditions: difference in signal between KI and DMSO treated samples at the end of experiments
# From the text: Fig. 3 KI effects on mitochondrial inner membrane potential (MMP). […] In a, c, data are means and standard derivations from three separate experiments. *p < 0.05 as compared to DMSO-treated samples at the end of experiments. In b, data are means of two independent experiments
# RCC II = target: T1, RCC II (Rattus norvegicus, UniProt P21913+Q641Z9+Q6PCT8+Q920L2); test: RCC II activity in submitochondrial particles; assay type: biochemical; set-up: key: activity relative to DMSO-treated controls (control set as 1 = 100%); conditions: relative to DMSO treated samples
# T1 construct: Submitochondrial particles were prepared by subjecting the intact mitochondria to three successive freeze–thaw cycles; from tissue; host or cells: rat liver mitochondria, used as submitochondrial particles
# Procedure: (§1) KIs were incubated with submitochondrial particles (1 mg/ml) for 15 min and then RCC I–V activities measured. […] The activities of DMSO-treated samples (controls) were set as 1. […] The difference between the activity from rotenone-containing buffer and rotenone-absent buffer was considered as RCC I activity. […] For measuring RCC I/V and II activity, the changes in absorbance at 340 and 600 nm, respectively, were determined every 1 min for 6 min. For measuring RCC III and RCC IV, the changes in absorbance at 550 nm were measured every 10 s for 2 min.
# RCC IV = RCC IV activity in submitochondrial particles; assay type: biochemical, rat; set-up: key to RCC IV at 50XCmax / RCC IV at 100XCmax: activity relative to DMSO-treated controls (control set as 1 = 100%); conditions: for RCC activity IV: 15 min, DMSO-treated = 100; for RCC IV at 50XCmax: relative to DMSO treated samples, in %
# Procedure: as §1
# [2] = cited from earlier work
# RCC III = RCC III activity in submitochondrial particles; assay type: biochemical, rat; set-up: key to RCC III at 100XCmax: activity relative to DMSO-treated controls (control set as 1 = 100%); conditions: for RCC activity III: 15 min, DMSO-treated = 100; for RCC III at 100XCmax: relative to DMSO treated samples
# Procedure: as §1
# [3] = set-up: method as in product labeling; conditions: ref product labeling, cited from earlier work
# [4] = system: isolated rat liver mitochondria; conditions: positive control alamethicin treated samples
# [5] = system: isolated rat liver mitochondria; test: Mitochondrial swelling (absorbance at 535 nm); assay type: biochemical; conditions: for Swelling 1XCmax / Swelling 2.5XCmax / Swelling 5XCmax / Swelling 10XCmax / Swelling 20XCmax / Swelling 30XCmax / Swelling 50XCmax / Swelling 100XCmax: difference in signal between KI and DMSO treated samples at the end of experiments; as to Swelling 5XCmax: key: 0 indicates that the drug had no effects (negative)
# [6] = system: isolated rat liver mitochondria; test: Mitochondrial ROS production (CM-H2DCFDA); conditions: for ROS measured by CM-H2DCFDA at 1XCmax / ROS measured by CM-H2DCFDA at 2.5XCmax / ROS measured by CM-H2DCFDA at 5XCmax / ROS measured by CM-H2DCFDA at 10XCmax / ROS measured by CM-H2DCFDA at 20XCmax / ROS measured by CM-H2DCFDA at 30XCmax / ROS measured by CM-H2DCFDA at 50XCmax / ROS measured by CM-H2DCFDA at 100XCmax: DMSO treated samples set as 1
# RCC V = RCC V activity in submitochondrial particles; assay type: biochemical, rat; conditions: for RCC V at 5XCmax / RCC V at 50XCmax: relative to DMSO treated samples; for RCC activity V: 15 min, DMSO-treated = 100; as to RCC V at 5XCmax: key: 0 indicates that the drug had no effects (negative)
# Procedure: as §1
# [7] = system: isolated rat liver mitochondria; test: Mitochondrial oxygen consumption (glutamate/malate or succinate driven, state 4 and state 3); assay type: biochemical; conditions: DMSO treated samples set as 1; as to State 3 respiration driven by succinate at 10XCmax: key: 0 indicates that the drug had no effects (negative); as to State 3 respiration driven by succinate at 1XCmax: key: 0 indicates that the drug had no effects (negative)
# Procedure: Rats were anesthetized by an intraperitoneal injection of Nembutal and the liver perfused with PBS to remove the blood. The liver was then cut into small pieces and homogenized using a Dounce type homogenizer in the ice-cold isolation buffer (IB) containing 200 mM sucrose, 10 mM Tris-MOPS, 1 mM EGTA (pH 7.4). The sample was then centrifuged at 600g for 10 min. The supernatant was further centrifuged at 7500g for 10 min, and the pellets was washed once with the IB and centrifuged again at 7500g for 10 min to collect mitochondria. […] Before drug treatment, the protein concentration was adjusted to 1 mg/ml using appropriate buffer. […] Briefly, mitochondrial and cytosolic fractions from four different preparations using four rats were diluted using the Laemmli protein loading buffer and subject to SDS-PAGE with 4–20% gradient gels. The proteins were blotted to PVDF membranes and detected using antibodies against GAPDH, ATP5A, UQCRC2, SDHB, and NDUFB8.
# The aliquoted stock solutions were kept for less than one month and each tube was used only once. The KIs were added to the mitochondria at 1:1000 dilutions. […] The Cmax data were from clinical trials which used FDA recommend dosages, route of administration, and duration. […] The final concentration of DMSO for drug treatment was always 0.1%, and control treatments were 0.1% DMSO.
# Briefly, mitochondria were incubated with the KIs for 5 min, and then split evenly and loaded to the sample tubes of two Oxytherm systems (Hansatech Instruments Ltd), with one system used for measuring glutamate/malate driven respiration and the other succinate-driven respiration, both of which were defined as state 4 respiration. After 3 min, ADP was added to measure the maximal oxygen consumption rate, which was defined as state 3 respiration. […] The oxygen consumption rate of DMSO-treated samples (controls) was set as 1.
# [8] = cited from earlier work; remark: listed apart in the source
# RCC I = RCC I activity in submitochondrial particles; assay type: biochemical, rat; set-up: key to RCC I at 10XCmax / RCC I at 100XCmax / RCC I at 50XCmax / RCC I at 30XCmax / RCC I at 20XCmax: activity relative to DMSO-treated controls (control set as 1 = 100%); conditions: 10XCmax; relative to DMSO treated samples
# Procedure: as §1
# T1 sequence (Q920L2 35-656): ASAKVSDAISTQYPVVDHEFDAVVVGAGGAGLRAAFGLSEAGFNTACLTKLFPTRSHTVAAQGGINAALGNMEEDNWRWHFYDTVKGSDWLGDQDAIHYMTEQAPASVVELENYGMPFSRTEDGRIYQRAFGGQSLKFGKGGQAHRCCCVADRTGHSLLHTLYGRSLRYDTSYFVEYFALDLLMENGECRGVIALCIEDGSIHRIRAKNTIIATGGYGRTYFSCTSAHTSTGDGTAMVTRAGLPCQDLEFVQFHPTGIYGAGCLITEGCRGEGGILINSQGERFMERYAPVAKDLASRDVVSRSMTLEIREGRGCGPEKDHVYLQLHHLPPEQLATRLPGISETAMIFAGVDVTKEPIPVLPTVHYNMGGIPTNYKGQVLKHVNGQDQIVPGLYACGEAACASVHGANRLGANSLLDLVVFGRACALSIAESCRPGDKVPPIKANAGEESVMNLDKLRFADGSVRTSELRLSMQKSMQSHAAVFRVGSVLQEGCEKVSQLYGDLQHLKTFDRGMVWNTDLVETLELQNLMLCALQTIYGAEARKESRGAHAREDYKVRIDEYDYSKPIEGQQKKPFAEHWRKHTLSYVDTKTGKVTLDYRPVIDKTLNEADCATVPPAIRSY
# T1 sequence (P21913 31-282): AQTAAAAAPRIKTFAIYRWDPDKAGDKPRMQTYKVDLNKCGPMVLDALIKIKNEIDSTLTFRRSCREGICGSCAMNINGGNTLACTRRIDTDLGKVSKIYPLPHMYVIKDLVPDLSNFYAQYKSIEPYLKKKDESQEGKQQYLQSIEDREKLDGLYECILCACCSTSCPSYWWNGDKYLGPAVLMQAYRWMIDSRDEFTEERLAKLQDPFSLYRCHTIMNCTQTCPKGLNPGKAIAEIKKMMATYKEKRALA
# T1 sequence (Q641Z9 1-169): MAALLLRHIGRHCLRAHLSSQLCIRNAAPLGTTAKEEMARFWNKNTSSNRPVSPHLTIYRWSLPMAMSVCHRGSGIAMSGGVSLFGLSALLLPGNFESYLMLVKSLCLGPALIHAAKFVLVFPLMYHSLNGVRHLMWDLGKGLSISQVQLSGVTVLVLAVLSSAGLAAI
# T1 sequence (Q6PCT8 57-159): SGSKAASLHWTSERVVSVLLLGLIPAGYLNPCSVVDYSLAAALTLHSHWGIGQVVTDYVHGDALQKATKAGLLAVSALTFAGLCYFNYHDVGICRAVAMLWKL
compound,measurement,setting,value
C[C@@H](Oc1cc(-c2cnn(C3CCNCC3)c2)cnc1N)c1c(Cl)ccc(F)c1Cl [Crizotinib],MMP measured by Rhodamine 123 at 1XCmax,[1],0
same,MMP measured by Rhodamine 123 at 2.5XCmax,[1],0
same,MMP measured by Rhodamine 123 at 5XCmax,[1],0
same,MMP measured by Rhodamine 123 at 10XCmax,[1],0
same,MMP measured by Rhodamine 123 at 20XCmax,[1],0
same,MMP measured by Rhodamine 123 at 30XCmax,[1],0
same,MMP measured by Rhodamine 123 at 50XCmax,[1],0
same,MMP measured by Rhodamine 123 at 100XCmax,[1],0
same,RCC II at 1.0XCmax,RCC II,0
same,RCC II at 2.5XCmax,RCC II,0
same,RCC II at 5XCmax,RCC II,0
same,RCC II at 10XCmax,RCC II,0
same,RCC II at 20XCmax,RCC II,0
same,RCC II at 30XCmax,RCC II,0
same,RCC II at 50XCmax,RCC II,0
same,RCC II at 100XCmax,RCC II,0
same,RCC activity IV,RCC IV; 20-fold Cmax,94.03 ± 9.67 % of control
same,RCC activity IV,RCC IV; 30-fold Cmax,96.65 ± 4.14 % of control
same,RCC activity IV,RCC IV; 50-fold Cmax,103.77 ± 5.67 % of control
same,RCC IV at 50XCmax,RCC IV,0
same,RCC activity IV,RCC IV; 100-fold Cmax,96.60 ± 8.40 % of control
same,DILI potential (based on labeling),"[2]; 1 = DILI positive, 0 = negative, ref product labeling",1
same,Labeling for DILI,"[2]; BBW: black box warning, W&P: Warnings and Precautions, ref product labeling",W&P: fatal DILI
same,labeling for DILI,"[2]; W&P warnings and precautions, BBW black box warnings, ref FDA product labeling",W&P: fatal DILI
same,DILI potential (based on labeling),[2]; ref FDA product labeling,1
same,RCC activity III,RCC III; 20-fold Cmax,99.67 ± 8.65 % of control
same,RCC activity III,RCC III; 30-fold Cmax,106.26 ± 5.79 % of control
same,RCC activity III,RCC III; 50-fold Cmax,98.02 ± 7.16 % of control
same,RCC activity III,RCC III; 100-fold Cmax,103.28 ± 2.85 % of control
same,RCC III at 100XCmax,RCC III,0
same,Labeling for cardiotoxicity,"[3]; BBW: black box warning, W&P: Warnings and Precautions",W&P: QT Interval Prolongation; Bradycardia
same,Potential for cardiotoxicity (based on labeling),[3],1
same,Cytochrome c release 1XCmax,[4],0
same,Cytochrome c release 2.5XCmax,[4],0
same,Cytochrome c release 5XCmax,[4],0
same,Cytochrome c release 10XCmax,[4],0
same,Cytochrome c release 20XCmax,[4],0
same,Cytochrome c release 30XCmax,[4],0
same,Cytochrome c release 50XCmax,[4],12.29±1.27 percentage of the positive control group
same,Cytochrome c release 100XCmax,[4],24.66±1.67 percentage of the positive control group
same,Swelling 1XCmax,[5],0
same,Swelling 2.5XCmax,[5],0
same,Swelling 5XCmax,[5],0
same,Swelling 10XCmax,[5],0
same,Swelling 20XCmax,[5],0
same,Swelling 30XCmax,[5],0
same,Swelling 50XCmax,[5],0
same,Swelling 100XCmax,[5],0.19±0.03
same,effect on mitochondrial swelling,"[5]; up to 100-fold Cmax or highest testable concentration, 25 µM calcium chloride",significant mitochondrial swelling
same,ROS measured by CM-H2DCFDA at 1XCmax,[6],0
same,ROS measured by CM-H2DCFDA at 2.5XCmax,[6],0
same,ROS measured by CM-H2DCFDA at 5XCmax,[6],0
same,ROS measured by CM-H2DCFDA at 10XCmax,[6],0
same,ROS measured by CM-H2DCFDA at 20XCmax,[6],1.46±0.08
same,ROS measured by CM-H2DCFDA at 30XCmax,[6],1.75±0.32
same,ROS measured by CM-H2DCFDA at 50XCmax,[6],2.06±0.27
same,ROS measured by CM-H2DCFDA at 100XCmax,[6],2.74±0.18
same,effect on ROS production,[6]; highest tested concentrations,significantly ROS production
same,RCC V at 5XCmax,RCC V,0
same,RCC activity V,RCC V; 20-fold Cmax,95.77 ± 7.64 % of control
same,RCC activity V,RCC V; 30-fold Cmax,98.65 ± 2.98 % of control
same,RCC activity V,RCC V; 50-fold Cmax,91.95 ± 5.63 % of control
same,RCC V at 50XCmax,RCC V,0
COc1cc2ncnc(Nc3ccc(F)c(Cl)c3)c2cc1OCCCN1CCOCC1 [Gefitinib],MMP measured by Rhodamine 123 at 1XCmax,[1],0
same,MMP measured by Rhodamine 123 at 2.5XCmax,[1],0
same,MMP measured by Rhodamine 123 at 5XCmax,[1],0
same,MMP measured by Rhodamine 123 at 10XCmax,[1],0
same,MMP measured by Rhodamine 123 at 20XCmax,[1],0
same,MMP measured by Rhodamine 123 at 30XCmax,[1],0
same,MMP measured by Rhodamine 123 at 50XCmax,[1],0
same,MMP measured by Rhodamine 123 at 100XCmax,[1],0
same,RCC II at 1.0XCmax,RCC II,0
same,RCC II at 2.5XCmax,RCC II,0
same,RCC II at 5XCmax,RCC II,0
same,RCC II at 10XCmax,RCC II,0
same,RCC II at 20XCmax,RCC II,0
same,RCC II at 30XCmax,RCC II,0
same,RCC II at 50XCmax,RCC II,0
same,RCC II at 100XCmax,RCC II,0
same,RCC IV at 50XCmax,RCC IV,0
same,RCC III at 100XCmax,RCC III,0
same,Potential for cardiotoxicity (based on labeling),[3],0
same,State 3 respiration driven by succinate at 1XCmax,[7]; 1XCmax,0
same,State 4 respiration driven by succinate at 1XCmax,[7]; 1XCmax,0
same,State 3 respiration driven by succinate at 2.5XCmax,[7]; 2.5XCmax,0
same,State 4 respiration driven by succinate at 2.5XCmax,[7]; 2.5XCmax,0
same,State 3 respiration driven by succinate at 5XCmax,[7]; 5XCmax,0
same,State 4 respiration driven by succinate at 5XCmax,[7]; 5XCmax,0
same,State 3 respiration driven by succinate at 10XCmax,[7]; 10XCmax,0
same,State 4 respiration driven by succinate at 10XCmax,[7]; 10XCmax,0
same,State 3 respiration driven by succinate at 20XCmax,[7]; 20XCmax,0
same,State 4 respiration driven by succinate at 20XCmax,[7]; 20XCmax,0
same,State 3 respiration driven by succinate at 30XCmax,[7]; 30XCmax,0
same,State 4 respiration driven by succinate at 30XCmax,[7]; 30XCmax,0
same,State 3 respiration driven by succinate at 50XCmax,[7]; 50XCmax,0
same,State 4 respiration driven by succinate at 50XCmax,[7]; 50XCmax,0
same,State 3 respiration driven by succinate at 100XCmax,[7]; 100XCmax,0
same,State 4 respiration driven by succinate at 100XCmax,[7]; 100XCmax,0
same,Cmax,"[8]; human therapeutic Cmax at FDA recommended dosages, ref product labeling and drug approval packages at the official FDA website",0.27 µM
same,Cmax,"[8]; read-out: Cmax at µM, therapeutic maximal blood concentration, ref product labeling",0.27 µM
same,Cmax,"[8]; therapeutic maximal blood concentration, ref product labeling",122 ng/mL
same,Cytochrome c release 1XCmax,[4],0
same,Cytochrome c release 2.5XCmax,[4],0
same,Cytochrome c release 5XCmax,[4],0
same,Cytochrome c release 10XCmax,[4],0
same,Cytochrome c release 20XCmax,[4],0
same,Cytochrome c release 30XCmax,[4],0
same,Cytochrome c release 50XCmax,[4],0
same,Cytochrome c release 100XCmax,[4],0
same,Swelling 1XCmax,[5],0
same,Swelling 2.5XCmax,[5],0
same,Swelling 5XCmax,[5],0
same,Swelling 10XCmax,[5],0
same,Swelling 20XCmax,[5],0
same,Swelling 30XCmax,[5],0
same,Swelling 50XCmax,[5],0
same,Swelling 100XCmax,[5],0
same,RCC I at 10XCmax,RCC I,0
same,ROS measured by CM-H2DCFDA at 1XCmax,[6],0
same,ROS measured by CM-H2DCFDA at 2.5XCmax,[6],0
same,ROS measured by CM-H2DCFDA at 5XCmax,[6],0
same,ROS measured by CM-H2DCFDA at 10XCmax,[6],0
same,ROS measured by CM-H2DCFDA at 20XCmax,[6],0
same,ROS measured by CM-H2DCFDA at 30XCmax,[6],0
same,ROS measured by CM-H2DCFDA at 50XCmax,[6],0
same,ROS measured by CM-H2DCFDA at 100XCmax,[6],0
same,RCC V at 5XCmax,RCC V,0
same,RCC V at 50XCmax,RCC V,0
